In patent US20190111149A1, “ANTI-EGFR ANTIBODY DRUG CONJUGATE” (priority 2016, published 2019):
Bridge positions count the residues as written; N and C are the ends. Square brackets hold non-standard residues; d marks the D form. Ends that are not written are not given here. azido‑Phe = azido-phenylalanine, photoactivatable residue; Abu(3-Me-diazirin-3-yl) = CC1(CC[C@H](N)C(=O)O)N=N1; Bpa = N[C@@H](Cc1ccc(C(=O)c2ccccc2)cc1)C(=O)O

Biological target: Meditope enabled Trastuzumab
Test: BLI binding kinetics of meditope peptides to Meditope enabled Trastuzumab
Description: The binding kinetics of photo enabled meditopes to antibodies (e.g., meditope enabled Trastuzumab, T-mab, and P-mab) was tested.

Meditope enabled Trastuzumab, sequence (as listed by the source): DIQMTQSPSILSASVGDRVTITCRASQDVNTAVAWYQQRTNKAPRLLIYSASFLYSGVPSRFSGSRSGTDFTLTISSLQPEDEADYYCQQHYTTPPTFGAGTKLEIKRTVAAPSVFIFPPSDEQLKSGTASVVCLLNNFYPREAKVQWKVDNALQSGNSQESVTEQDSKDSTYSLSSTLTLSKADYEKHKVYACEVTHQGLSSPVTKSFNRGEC
Meditope enabled Trastuzumab, sequence (as listed by the source): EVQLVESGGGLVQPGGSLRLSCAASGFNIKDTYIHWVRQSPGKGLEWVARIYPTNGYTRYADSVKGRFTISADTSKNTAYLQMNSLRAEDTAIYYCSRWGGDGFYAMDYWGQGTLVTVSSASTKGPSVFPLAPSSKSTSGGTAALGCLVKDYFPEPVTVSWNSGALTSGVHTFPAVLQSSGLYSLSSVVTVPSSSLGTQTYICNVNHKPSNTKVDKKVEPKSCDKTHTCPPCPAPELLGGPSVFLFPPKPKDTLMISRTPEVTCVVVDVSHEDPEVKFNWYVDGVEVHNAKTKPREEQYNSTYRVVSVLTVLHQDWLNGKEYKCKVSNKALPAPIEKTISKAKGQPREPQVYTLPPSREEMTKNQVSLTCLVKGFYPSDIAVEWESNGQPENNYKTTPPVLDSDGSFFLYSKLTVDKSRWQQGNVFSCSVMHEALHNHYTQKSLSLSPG

| Substance | Kd (Conc. 50 nM) [nM] | kon (Conc. 50 nM) [M⁻¹ s⁻¹] | Kd (Conc. 100 nM) [nM] | kon (Conc. 100 nM) [M⁻¹ s⁻¹] | Kd (Conc. 200 nM) [nM] | kon (Conc. 200 nM) [M⁻¹ s⁻¹] |
| --- | --- | --- | --- | --- | --- | --- |
| Peptide 10: MMAD conjugated photoactivatable long cQFD azido-Phe 3 (CQ[azido‑Phe]DLSTRRLRCGGGK; disulfide 1-12 (inferred); also: MMAD conjugated) | < 0.001 | 816 | 18100 | 266 | 30200 | 537 |
| Peptide 6: MMAD conjugated photoactivatable long cQFD photo-Met 9 (CQFDLSTR[Abu(3-Me-diazirin-3-yl)]LRCGGGK; disulfide 1-12 (inferred); also: MMAD conjugated) | < 0.001 |  | 2.51 | 3.65e+06 | 0.0191 |  |
| Peptide 12: MMAD conjugated photoactivatable long cQFD benzoyl-Phe 3 (CQ[Bpa]DLSTRRLRCGGGK; disulfide 1-12 (inferred); also: MMAD conjugated) | < 0.001 |  | 1.22 | 9.47e+06 | 73.3 | 286000 |
